A short description of data set [1]: Rat pharmacokinetics study of pro-drugs, conversion to parent monitored by HPLC/MS/MS. It is filed as in vivo. To be noted: po, rat plasma, 10 mg/kg orally, read-out: Fast PK (0.5 h) conc. Prodrug. As to the method:
Furthermore, pro-drugs have been administered orally to rats (10 mg/kg) in pharmacokinetics studies, and the conversion of pro-drugs to the parent compound was montitored by HPLC/MS/MS analyses. Parent compound or the glucuronide conjugates of the parent compound was detected in the rat plasma from the pharmacokinetics studies (Table G).

The target in data set [2] is T1, PDGF-receptor beta enzyme comprising the tyrosine kinase domain (Homo sapiens, UniProt P09619).
T1 construct: from amino acid 545 to 1106 of GenBank Access NO: AAA36427
Description: Inhibition of PDGF-receptor kinase activity (cell-free, PLC1 peptide, 33P Flashplate). It is filed as biochemical. Particulars: for inhibition at 10 µM: compound at 10 uM, read-out: Percent Inhibition @ 10 uM. In short, it runs like this: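 The IC50 is the inhibitor level halving kinase activity relative to inhibitor-free wells, measured as 33P captured on a streptavidin-bound biotin-PLC1 peptide. The reaction ran 60 min at 30 °C in pH 8 Tris buffer with 1 mM DTT, 5 μM ATP and the 545–1106 kinase-domain enzyme.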

For data set [3], the system named is A375 (melanoma). In words: Anti-cell proliferation in tumor cells (14C-thymidine incorporation), A375. Type of data set: cell-based. Particulars: Homo sapiens, A-375; read-out: IC50 on cell proliferation, A375. The protocol:
(§1) The effect of compounds of the invention on cell proliferation in various tumor cells was tested based on incorporation of ^14C-thymidine into DNA of cells.
(§2) Similar to those described above in 3a, except that different cells, cell growth medium, and growth supplements were used. Human tumor cell lines derived from various human tissue origins (LoVo from colon, H460 from lung, T47D from breast, PC3 from prostate, A375 from melanoma, AsPC1 from pancreas) were obtained from the American Type Culture Collection (ATCC) and cultured under specified conditions required for each cell type, as provided by ATCC. Complete medium was obtained from Cellgro: Iscove's medium with 10% Fetal Bovine Serium (FBS) (Mediatech, Inc., Herndon, Va. 20171, Cat. No. 10-016-CV).
(§3) Tumor cells were seeded at approx. 3000–8000 cells per well in a volume of 100 μl of complete medium. Cells were grown for 24 hours in complete medium, and 1 μl of test compound was serially diluted in 100% DMSO and added to each well. For maximum growth control wells, only 1 μl of 100% DMSO was added. After 24 hours incubation, 20 μl of ^14C-thymidine master mix was added to each well and the ^14C-thymidine master mix was pepared according to the following regimen:
(§4) Cells were incubated for an additional 24 hours at 37° C. in medium containing test compound and ^14C-thymidine. Then, the reaction mixture was discarded and the plate was washed 2 times each with 200 μl PBS. Subsequently, each well on the plate was filled with 200 μl of PBS. The top of the plate was sealed with transparent plate sealer and white plate backing sealers were applied to the bottom of plates. The retained ^14C inside each well was measured using a Packard TopCount.
(§5) In order to test the potency of inhibition of the present compound, IC50 of an individual compound on the inhibition of tumor cell line proliferation was measured using the above procedure. As used herein, said IC50 refers to the concentration of the test compound at which the amount of tumor cell proliferation is reduced by one-half as compared to the maximum growth control wells without the compound.

Data set [4] has as its system LoVo (colon). In words: Anti-cell proliferation in tumor cells (14C-thymidine incorporation), LoVo. Type of data set: cell-based. To be noted: Homo sapiens, read-out: IC50 on cell proliferation, LoVo. As to the method:
as §1, §2, §3, §4, §5
(Dividing cells build labelled thymidine or BrdU into new DNA.)

Data set [5] relates to PC3 (prostate). In words: Anti-cell proliferation in tumor cells (14C-thymidine incorporation), PC3. To be noted: Homo sapiens, PC-3; read-out: IC50 on cell proliferation, PC3. It is filed as cell-based. The protocol: as §1, §2, §3, §4, §5
Data set [6] concerns the target c-Abl kinase (Abelson murine leukemia virus, UniProt P00521). Description: Inhibition of c-Abl kinase activity (cell-free, Abl peptide substrate, 33P Flashplate). It is filed as biochemical. To be noted: IC50 for the c-Abl kinase activity.
For data set [7], the system named is AsPC1 (pancreas). In words: Anti-cell proliferation in tumor cells (14C-thymidine incorporation), AsPC1. It is filed as cell-based. To be noted: Homo sapiens, ASPC1; read-out: IC50 on cell proliferation, AsPC1. As to the method: as §1, §2, §3, §4, §5
Data set [8] concerns H460 (lung). In words: Anti-cell proliferation in tumor cells (14C-thymidine incorporation), H460. Type of data set: cell-based. Particulars: Homo sapiens, NCI-H460; read-out: IC50 on cell proliferation, H460. As to the method: as §1, §2, §3, §4, §5
Data set [9] relates to T47D (breast). Description: Anti-cell proliferation in tumor cells (14C-thymidine incorporation), T47D. Type of data set: cell-based. To be noted: Homo sapiens, read-out: IC50 on cell proliferation, T47D. As to the method:
as §1, §2, §3, §4, §5

Data set [10] deals with PDGF-BB-stimulated angiogenesis. Description: Anti-angiogenesis matrigel mouse model (MM assay) supplemented with PDGF-BB, plug hemoglobin content. It is filed as in vivo, mice (C57BL/6J). Particulars: mice. The source says: Angiogenesis inhibitory activity of a compound of this invention can be measured in vivo using the matrigel mouse model (MM Assay) of angiogenesis (Passaniti et al., Laboratory Investigation, 67: 519–528, 1992). The matrigel mouse assay is a well-established method to quantify angiogenesis (see e g. Capogrossi et al., Methods in Molecular Medicine, Vascular Disease: Molecular Biology and Gene Therapy Protocols, Edited by: A. H. Baker, Humana Press Inc., Totowa, N.J., 1999). The model has been characterized extensively for its relevance as a mimic of the process of angiogenesis and has been used extensively to evaluate in vivo both potential angiogenic and anti-angiogenic activity of numerous compounds/agents. […] All procedures involving animals were conducted in an animal facility fully accredited by the American Association for Assessment and Accreditation of Laboratory Animal Care (AAALAC) and in accordance with The Guide for the Care and Use of Laboratory Animals (NIH). […]
Normal male mice (C57BL/6J) were injected subcutaneously (ventrally below rib cage at abdominal midline) with 1.0 mL of chilled matrigel supplemented with a single purified pro-angiogenic growth factor (100–500 ng/mL of either rhPDGF-BB (supra), recombinant human basic fibroblast growth factor, rhFGF-basic (R&D System Cat. No 233-FB) or recombinant human vascular endothelial growth factor, rhVEGF (PanVera Cat. No R2951) and heparin (35 U/mL). Compounds are formulated as 0.1% suspensions (1 mg/mL final concentration) in 0.5% methylcellulose. Vehicle or test compounds (8–10 mice per treatment group) were administered orally by gavage beginning two hours after matrigel injections. […] Supernatants were removed and the hemoglobin concentration in the plug extract was measured spectrophotometrically using the Drabkin's assay method (Drabkin's reagent kit 525-A; SIGMA) and read on a Beckman DU 7400 Spectrophotometer. […] Group differences were analyzed statistically using the Mann-Whitney Test, with a p-value of 0.05 or less considered statistically significant. […]

Where [11] appears, read: PDGF-R kinase activity, read-out: IC50.

Where two headings read alike, the source gives them in different places.

T1 sequence (P09619 545-1106): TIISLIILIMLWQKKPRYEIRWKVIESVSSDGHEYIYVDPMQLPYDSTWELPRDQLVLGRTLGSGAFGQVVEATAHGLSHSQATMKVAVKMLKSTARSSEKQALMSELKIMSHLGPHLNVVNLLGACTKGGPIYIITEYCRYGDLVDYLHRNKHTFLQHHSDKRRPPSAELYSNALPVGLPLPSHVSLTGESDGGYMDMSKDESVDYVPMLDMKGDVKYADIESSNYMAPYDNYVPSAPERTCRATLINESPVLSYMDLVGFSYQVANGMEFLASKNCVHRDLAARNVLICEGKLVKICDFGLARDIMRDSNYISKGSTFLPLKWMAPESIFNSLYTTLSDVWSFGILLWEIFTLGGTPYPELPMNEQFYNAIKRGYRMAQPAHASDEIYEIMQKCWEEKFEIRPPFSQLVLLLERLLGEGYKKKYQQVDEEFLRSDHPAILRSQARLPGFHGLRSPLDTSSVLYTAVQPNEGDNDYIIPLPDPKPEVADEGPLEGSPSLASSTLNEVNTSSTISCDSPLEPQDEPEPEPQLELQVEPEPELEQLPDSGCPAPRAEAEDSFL
Sequence of c-Abl kinase (P00521 115-385): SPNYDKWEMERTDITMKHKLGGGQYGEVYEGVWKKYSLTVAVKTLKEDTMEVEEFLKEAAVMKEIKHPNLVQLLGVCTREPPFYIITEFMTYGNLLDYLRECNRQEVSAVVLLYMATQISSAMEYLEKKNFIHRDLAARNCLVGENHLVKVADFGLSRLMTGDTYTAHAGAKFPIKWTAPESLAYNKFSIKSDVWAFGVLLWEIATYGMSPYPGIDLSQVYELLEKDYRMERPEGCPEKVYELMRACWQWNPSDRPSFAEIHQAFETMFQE

The inhibition is the change of the read-out against control, counted positive when it falls. In the case of `COc1cc2c(cc1OC)-c1c(c(Nc3cccc(F)c3)nn1C(=O)Oc1ccccc1)C2` [Compound 433, 3-(3-Fluoro-phenylamino)-6,7-dimethoxy-4H-indeno[1,2-c]pyrazole-1-carboxylic acid phenyl ester], in data set [1], the concentration at 0.5 h came out at 60 nM. The inhibition at 10 µM in data set [2] (PDGF-R kinase activity) came to 71%. Also, the IC50 in data set [2] (setting [11]) is 0.585 µM.

Take `CCC1c2cc(OC)c(OC)cc2-c2n[nH]c(Nc3cccc(Br)c3)c21` (stereo not drawn) [Compound 420, (3-Bromo-phenyl)-(4-ethyl-6,7-dimethoxy-2,4-dihydro-indeno[1,2-c]pyrazol-3-yl)-amine]: the IC50 in data set [3] came out at 214 nM; in data set [4] it was 3800 nM; in data set [2] (setting [11]), 0.0524 µM; in data set [5] it was 276 nM; in data set [6] it was 335 nM; in data set [7], 4300 nM. The values for the IC50 in data set [8] and in data set [9] were 4100 nM and 822 nM, respectively. Moreover, the inhibition at 10 µM in data set [2] (PDGF-R kinase activity) worked out at 100%.

As for `CCOc1cccc(Nc2[nH]nc3c2Cc2cc(OCC)c(OCCCO)cc2-3)c1` [Compound 388, 3-[6-Ethoxy-3-(3-ethoxy-phenylamino)-2,4-dihydro-indeno[1,2-c]pyrazol-7-yloxy]-propan-1-ol], the IC50 in [3] worked out at 2 nM; in data set [4], 18 nM; in data set [2] (setting [11]), 0.0367 µM; in data set [5], 4 nM; in [6], 46 nM; in [7], 155 nM. In addition, the IC50 in data set [8] was 6 nM; in data set [9], 3 nM. Besides, the inhibition at 10 µM in data set [2] (PDGF-R kinase activity) worked out at 96%.

As for `COc1cc2c(cc1OC)-c1c(c(Nc3cccc(Br)c3)nn1C)C2` [Compound 91, (3-Bromo-phenyl)-(6,7-dimethoxy-1-methyl-1,4-dihydro-indeno[1,2-c]pyrazol-3-yl)-amine], the IC50 came out at 4 nM in data set [3], 71 nM in [4] and 2.97 µM in data set [2] (setting [11]). The inhibition at 10 µM in [2] (PDGF-R kinase activity) was found to be 76%.

As for `CNC(=O)n1nc(Nc2cccc(F)c2)c2c1-c1cc(OC)c(OC)cc1C2` [Compound 578, 3-(3-Fluoro-phenylamino)-6,7-dimethoxy-4H-indeno[1,2-c]pyrazole-1-carboxylic acid methylamide], in data set [1], the concentration at 0.5 h turned out to be 7800 nM. The inhibition at 10 µM in data set [2] (PDGF-R kinase activity) worked out at 80%. The IC50 in data set [2] (read-out: IC50 (μM) on PDGF-R kinase activity) came to 4.02 µM.

For the compound `COc1cc2c(cc1OC)-c1n[nH]c(Nc3cccc(C(F)(F)F)c3)c1C2` [Compound 26, (6,7-Dimethoxy-2,4-dihydro-indeno[1,2-c]pyrazol-3-yl)-(3-trifluoromethyl-phenyl)-amine], in [10], the “% Inhibition @ 30 mg/kg po (angiogenesis, MM assay supplemented with PDGF-BB)” value was found to be 42%. Moreover, in [2] (PDGF-R kinase activity), the inhibition at 10 µM was 92%. In addition, the IC50 was 0.037 µM in data set [2] (setting [11]) and 134 nM in [6].

With `COCC(=O)n1nc(Nc2cccc(F)c2)c2c1-c1cc(OC)c(OC)cc1C2` [Compound 465, 1-[3-(3-Fluoro-phenylamino)-6,7-dimethoxy-4H-indeno[1,2-c]pyrazol-1-yl]-2-methoxy-ethanone], the concentration at 0.5 h in data set [1] is 223 nM. Moreover, in data set [2] (PDGF-R kinase activity), the inhibition at 10 µM came out at 96%. For the same compound, the IC50 was 0.00673 µM in data set [2] (setting [11]) and 51 nM in [6].

In the case of `COc1cc2c(cc1OC)-c1c(c(Nc3cccc(F)c3)nn1C(=O)OCCOCCOCCO)C2` [Compound 471, 3-(3-Fluoro-phenyl-amino)-6,7-dimethoxy-4H-indeno[1,2-c]pyrazole-1-carboxylic acid 2-[2-(2-hydroxy-ethoxy)-ethoxy]-ethyl ester], the concentration at 0.5 h in [1] stood at 0 nM. Further, the inhibition at 10 µM in [2] (PDGF-R kinase activity) came to 90.5%. The IC50 in data set [2] (setting [11]) amounted to 0.135 µM.

The values are drawn from patent US7196110B2, “N-substituted tricyclic 3-aminopyrazoles as inhibitors for the treatment of cell proliferative disorders” (Janssen Phamaceutica N.V., priority 2002, dated 2007).
